Source: publication PMC7725003, “Systematically Studying the Optimal Amino Acid Distribution Patterns of the Amphiphilic Structure by Using the Ultrashort Amphiphiles” (Frontiers in Microbiology, 2020)
Where no end group is shown, it is not given here.

Tests used:
E. coli 25922 = format: cell-based, Escherichia coli; details: 25922, 24 h
Protocol: (§1) The antimicrobial activities of the peptides were measured using a method adapted from the National Committee for Clinical Laboratory Standards (NCCLS) with some modifications ([Chou et al., 2016]). The specific procedure for these assays has been previously described. In brief, the bacterial cells were grown to a mid-logarithmic phase and diluted in MHB to an ultimate concentration of 0.5–1 × 10^6 CFU mL^–1. Subsequently, the peptides were consecutively diluted in a 0.2% BSA solution and then added to a bacterial solution in a 96-well plate at identical volumes. After incubation for 24 h at 37°C, the MICs were determined to be the lowest peptide concentration that inhibited 95% of the bacterial growth by monitoring the absorbance at 492 nm using a microplate reader. Subsequently, 50 μL of each incubation mixture was further transferred to agar plates and incubated overnight. The minimum bactericidal concentrations (MBCs) were determined as the lowest peptide concentration that killed greater than 99.9% of the bacterial cells. Every assay was reproduced more than 3 times.

E. coli UB1005 = format: cell-based, Escherichia coli; details: UB1005, 24 h
Protocol: as §1

E. coli O78 = format: cell-based, Escherichia coli; details: O78, 24 h
Protocol: as §1

Gram-negative bacteria = details: for GM, Gram-negative bacteria: geometric mean of MICs (Table 3); for TI, Gram-negative bacteria: therapeutic index TI = MHC/GM MIC
Protocol: (§2) The antimicrobial activity of AMPs is the most decisive index for evaluating the clinical application of antimicrobial drugs.
as §1, with “The minimum bactericidal concentrations (MBCs) were determined as the lowest peptide concentration that killed greater than 99.9% of the bacterial cells.” left out

Gram-positive bacteria = details: for GM, Gram-positive bacteria: geometric mean of MICs (Table 3); for TI, Gram-positive bacteria: therapeutic index TI = MHC/GM MIC
Protocol: as §2
as §1, with “The minimum bactericidal concentrations (MBCs) were determined as the lowest peptide concentration that killed greater than 99.9% of the bacterial cells.” left out

S. aureus 29213 [1] = assay: Salt sensitivity assay (MIC); format: cell-based, Staphylococcus aureus; details: for MIC, FeCl3: 4 μM FeCl3; for MIC, NH4Cl: 6 μM NH4Cl; for MIC, ZnCl2: 8 μM ZnCl2; for MIC, MgCl2: 1 mM MgCl2; for MIC, CaCl2: 2 mM CaCl2; for MIC, KCl: 4.5 mM KCl; for MIC, NaCl: 150 mM NaCl; for MIC, Control: no added salt, three independent assays
Protocol: as §1
(§3) The salt sensitivities of the peptides were determined. E. coli ATCC 25922 and S. aureus ATCC 29213 were incubated in the presence of various ultimate concentrations of physiological salts (150 mM NaCl, 4.5 mM KCl, 6 μM NH4Cl, 8 μM ZnCl2, 1 mM MgCl2, 2mM CaCl2, and 4 μM FeCl3) according to our previous protocol ([Yang et al., 2019]). These tests were performed under the MICs, and three independent assays were performed.

P. aeruginosa 27853 = format: cell-based, Pseudomonas aeruginosa; details: 27853, 24 h
Protocol: as §1

E. faecalis 29212 = format: cell-based, Enterococcus faecalis; details: 29212, 24 h
Protocol: as §1

E. coli ATCC 25922 = assay: Salt sensitivity assay (MIC); format: cell-based, Escherichia coli; details: for MIC, FeCl3: 4 μM FeCl3; for MIC, NH4Cl: 6 μM NH4Cl; for MIC, ZnCl2: 8 μM ZnCl2; for MIC, MgCl2: 1 mM MgCl2; for MIC, CaCl2: 2 mM CaCl2; for MIC, KCl: 4.5 mM KCl; for MIC, NaCl: 150 mM NaCl; for MIC, Control: no added salt, three independent assays
Protocol: as §1, §3

S. typhimurium 14028 = format: cell-based, Salmonella typhimurium; details: 14028, 24 h
Protocol: as §1

S. typhimurium 7731 = format: cell-based, Salmonella typhimurium; details: 7731, 24 h
Protocol: as §1

[2] = tested on: all of the tested bacterial strains; assay: Geometric mean of MICs, all tested bacterial strains; format: cell-based; details: for GM, All: geometric mean of MICs across all tested strains; for TI, All: therapeutic index TI = MHC/GM MIC
Source text: The antimicrobial activity of AMPs is the most decisive index for evaluating the clinical application of antimicrobial drugs. Many antimicrobial agents inhibit bacterial growth rather than kill the bacteria quickly, and long-term infections are pathogens that are not completely killed, which results in bacterial severe drug resistance. […] The geometric mean (GM) values of the MICs/MBCs of the two series across all of the tested bacterial strains are represented in Table 3, which depicts the average bacteriostatic/bactericidal level of a peptide.
as §1

[3] = tested on: Listeria monocytogenes CGMCC 1.1075; format: cell-based; details: CGMCC 1.1075, 24 h
Protocol: as §1

B. subtilis 63501 = format: cell-based, Bacillus subtilis; details: 63501, 24 h
Protocol: as §1

S. aureus 25923 = format: cell-based, Staphylococcus aureus; details: 25923, 24 h
Protocol: as §1

S. aureus 29213 [4] = format: cell-based, Staphylococcus aureus; details: 29213, 24 h
Protocol: as §1

S. epidermidis 12228 = format: cell-based, Staphylococcus epidermidis; details: 12228, 24 h
Protocol: as §1

S. pullorum 7913 = format: cell-based, Salmonella pullorum; details: 7913, 24 h
Protocol: as §1

MRSA 43300 = format: cell-based, methicillin-resistant S. aureus; details: 43300, 24 h
Protocol: as §1

RWWWWRRWR-NH2 [W10] gave an MBC (E. coli 25922) of 16 µM, an MIC (E. coli 25922) of 8 µM and an MBC (E. coli UB1005) of 16 µM. It also gave an MIC (E. coli UB1005) of 8 µM, an MBC (E. coli O78) of 8 µM and an MIC (E. coli O78) of 4 µM. For the same substance, the “GM, Gram-negative bacteria” value (Gram-negative bacteria) was 5.44 µM, the “TI, Gram-negative bacteria” value (Gram-negative bacteria) was 47.06 and the “GM, Gram-positive bacteria” value (Gram-positive bacteria) was 2.21 µM. The “TI, Gram-positive bacteria” value (Gram-positive bacteria) was 115.84, the MIC, FeCl3 (S. aureus 29213 [1]) was 1 µM and the MIC, NH4Cl (S. aureus 29213 [1]) was 1 µM. The MIC, ZnCl2 (S. aureus 29213 [1]) was 1 µM, the MIC, MgCl2 (S. aureus 29213 [1]) was 2 µM and the MIC, CaCl2 (S. aureus 29213 [1]) was 2 µM. It also gave an MIC, KCl (S. aureus 29213 [1]) of 2 µM, an MIC, NaCl (S. aureus 29213 [1]) of 2 µM and an MIC, Control (S. aureus 29213 [1]) of 2 µM. It also gave an MBC (P. aeruginosa 27853) of 8 µM, an MIC (P. aeruginosa 27853) of 4 µM and an MBC (E. faecalis 29212) of 8 µM. It also gave an MIC (E. faecalis 29212) of 4 µM, an MIC, FeCl3 (E. coli ATCC 25922) of 4 µM and an MIC, NH4Cl (E. coli ATCC 25922) of 8 µM. The MIC, ZnCl2 (E. coli ATCC 25922) was 4 µM, the MIC, MgCl2 (E. coli ATCC 25922) was 16 µM and the MIC, CaCl2 (E. coli ATCC 25922) was 16 µM. For the same substance, the MIC, KCl (E. coli ATCC 25922) was 16 µM, the MIC, NaCl (E. coli ATCC 25922) was 32 µM and the MIC, Control (E. coli ATCC 25922) was 8 µM. For the same substance, the MBC (S. typhimurium 14028) was 16 µM, the MIC (S. typhimurium 14028) was 8 µM and the MBC (S. typhimurium 7731) was 8 µM. For the same substance, the MIC (S. typhimurium 7731) was 4 µM, the “GM, All” value [2] was 3.67 µM and the “TI, All” value [2] was 69.75. It also gave an MBC [3] of 4 µM, an MIC [3] of 2 µM and an MBC (B. subtilis 63501) of 4 µM. It also gave an MIC (B. subtilis 63501) of 2 µM, an MBC (S. aureus 25923) of 4 µM and an MIC (S. aureus 25923) of 2 µM. It also gave an MBC (S. aureus 29213 [4]) of 4 µM, an MIC (S. aureus 29213 [4]) of 2 µM and an MBC (S. epidermidis 12228) of 4 µM. It also gave an MIC (S. epidermidis 12228) of 2 µM, an MBC (S. pullorum 7913) of 32 µM and an MIC (S. pullorum 7913) of 16 µM. It also gave an MBC (MRSA 43300) of 4 µM and an MIC (MRSA 43300) of 2 µM.

Work on RWRWRRWWW-NH2 [W9] yielded an MBC (E. coli 25922) of 8 µM, an MIC (E. coli 25922) of 4 µM and an MBC (E. coli UB1005) of 8 µM. For the same substance, the MIC (E. coli UB1005) was 4 µM, the MBC (E. coli O78) was 8 µM and the MIC (E. coli O78) was 4 µM. The “GM, Gram-negative bacteria” value (Gram-negative bacteria) was 4.67 µM, the “TI, Gram-negative bacteria” value (Gram-negative bacteria) was 54.82 and the “GM, Gram-positive bacteria” value (Gram-positive bacteria) was 2.44 µM. The “TI, Gram-positive bacteria” value (Gram-positive bacteria) was 104.92, the MIC, FeCl3 (S. aureus 29213 [1]) was 2 µM and the MIC, NH4Cl (S. aureus 29213 [1]) was 2 µM. For the same substance, the MIC, ZnCl2 (S. aureus 29213 [1]) was 2 µM, the MIC, MgCl2 (S. aureus 29213 [1]) was 2 µM and the MIC, CaCl2 (S. aureus 29213 [1]) was 4 µM. For the same substance, the MIC, KCl (S. aureus 29213 [1]) was 2 µM, the MIC, NaCl (S. aureus 29213 [1]) was 2 µM and the MIC, Control (S. aureus 29213 [1]) was 2 µM. The MBC (P. aeruginosa 27853) was 16 µM, the MIC (P. aeruginosa 27853) was 8 µM and the MBC (E. faecalis 29212) was 8 µM. For the same substance, the MIC (E. faecalis 29212) was 4 µM, the MIC, FeCl3 (E. coli ATCC 25922) was 4 µM and the MIC, NH4Cl (E. coli ATCC 25922) was 4 µM. It also gave an MIC, ZnCl2 (E. coli ATCC 25922) of 8 µM, an MIC, MgCl2 (E. coli ATCC 25922) of 8 µM and an MIC, CaCl2 (E. coli ATCC 25922) of 16 µM. The MIC, KCl (E. coli ATCC 25922) was 8 µM, the MIC, NaCl (E. coli ATCC 25922) was 16 µM and the MIC, Control (E. coli ATCC 25922) was 4 µM. For the same substance, the MBC (S. typhimurium 14028) was 16 µM, the MIC (S. typhimurium 14028) was 8 µM and the MBC (S. typhimurium 7731) was 8 µM. For the same substance, the MIC (S. typhimurium 7731) was 4 µM, the “GM, All” value [2] was 3.51 µM and the “TI, All” value [2] was 72.93. The MBC [3] was 8 µM, the MIC [3] was 4 µM and the MBC (B. subtilis 63501) was 4 µM. It also gave an MIC (B. subtilis 63501) of 2 µM, an MBC (S. aureus 25923) of 4 µM and an MIC (S. aureus 25923) of 2 µM. The MBC (S. aureus 29213 [4]) was 4 µM, the MIC (S. aureus 29213 [4]) was 2 µM and the MBC (S. epidermidis 12228) was 4 µM. For the same substance, the MIC (S. epidermidis 12228) was 2 µM, the MBC (S. pullorum 7913) was 8 µM and the MIC (S. pullorum 7913) was 4 µM. It also gave an MBC (MRSA 43300) of 4 µM and an MIC (MRSA 43300) of 2 µM.
